Laboratory results: the NIST ThermoML archive (doi:10.1016/j.jct.2010.10.025)

Experiment: xn = mol fraction of the nth substance listed
Conditions: 101 kPa, Liquid; for speed of sound: Sing-around technique in a fixed-path interferometer; for mass density: Vibrating tube method

CCCCCCCCCO [nonan-1-ol] + COc1ccccc1
Conditions	mass density, 293.15 K [kg/m3]	mass density, 313.15 K [kg/m3]	speed of sound, 293.15 K [m/s]	speed of sound, 313.15 K [m/s]
x2 = 0	827.704	813.877	1380.7	1314
x2 = 0.0691	834.714	820.629	1379.8	1312
x2 = 0.1265	840.852	826.539	1379.1	1310.9
x2 = 0.2023	849.439	834.809	1378.5	1309.8
x2 = 0.2701	857.605	842.665	1378.4	1309
x2 = 0.335	865.942	850.682	1378.5	1308.5
x2 = 0.405	875.488	859.873	1379	1308.3
x2 = 0.4753	885.766	869.775	1380.2	1308.6
x2 = 0.5348	895.034	878.714	1381.6	1309.2
x2 = 0.6025	906.314	889.609	1384.2	1311.1
x2 = 0.6657	917.614	900.551	1387.5	1313.4
x2 = 0.7399	931.942	914.464	1392.7	1317.5
x2 = 0.8198	948.831	930.915	1400.4	1323.4
x2 = 0.8791	962.443	944.199	1407.4	1329
x2 = 0.9468	979.271	960.651	1417.5	1337.5

Cc1ccc(O)cc1 [4-methylphenol] + CCCCCCCCCO
Conditions	mass density, 293.15 K [kg/m3]	mass density, 313.15 K [kg/m3]	speed of sound, 293.15 K [m/s]	speed of sound, 313.15 K [m/s]
x1 = 0.0723	837.798	823.756	1387.3	1319.8
x1 = 0.1353	846.887	832.662	1392.7	1324.9
x1 = 0.2032	856.995	842.572	1398.2	1330.5
x1 = 0.2637	866.395	851.785	1403.2	1335.7
x1 = 0.3492	880.334	865.479	1410.3	1343
x1 = 0.4122	891.234	876.214	1415.5	1348.6
x1 = 0.4898	905.461	890.246	1422.7	1356.1
x1 = 0.5492	917.111	901.771	1428.7	1362.2
x1 = 0.6143	930.635	915.184	1436	1369.8
x1 = 0.6735	943.741	928.201	1443.4	1377.4
x1 = 0.7455	960.902	945.287	1453.2	1388.3
x1 = 0.8163	979.164	963.518	1464.5	1400
x1 = 0.8789	996.577	980.938	1476	1412.3
x1 = 0.9362	1013.65	998.054	1487.5	1424.4
x1 = 1	1033.99	1018.47	1502.2	1439.6

CCCCCCCCCO [nonan-1-ol] + Cc1ccccc1O
Conditions	mass density, 293.15 K [kg/m3]	mass density, 313.15 K [kg/m3]	speed of sound, 293.15 K [m/s]	speed of sound, 313.15 K [m/s]
x2 = 0	827.704	813.877	1380.7	1314
x2 = 0.0747	838.281	824.298	1388	1320
x2 = 0.1411	848.105	833.982	1393.4	1325.4
x2 = 0.2087	858.578	844.312	1398.9	1330.9
x2 = 0.2614	867.121	852.733	1403.3	1335.5
x2 = 0.326	878.085	863.535	1408.9	1341.4
x2 = 0.4013	891.616	876.862	1416.1	1348.8
x2 = 0.4562	902.048	887.133	1422	1354.7
x2 = 0.5303	916.987	901.834	1430.5	1363.3
x2 = 0.5829	928.291	912.952	1437.3	1370
x2 = 0.645	942.416	926.834	1446.2	1378.7
x2 = 0.7171	960.1	944.211	1457.8	1389.8
x2 = 0.784	977.81	961.595	1470	1401.7
x2 = 0.8566	998.699	982.094	1485.3	1416.7
x2 = 0.9397	1024.88	1007.76	1505.2	1436.5

CCCCCCCCCO [nonan-1-ol] + Cc1cccc(O)c1
Conditions	mass density, 293.15 K [kg/m3]	mass density, 313.15 K [kg/m3]	speed of sound, 293.15 K [m/s]	speed of sound, 313.15 K [m/s]
x2 = 0	827.704	813.877	1380.7	1314
x2 = 0.0696	837.032	823.074	1386.7	1319.2
x2 = 0.1336	845.992	831.904	1390.8	1323.6
x2 = 0.2038	856.282	842.048	1395.6	1328.8
x2 = 0.2679	866.185	851.815	1400.4	1333.8
x2 = 0.3231	875.133	860.644	1404.9	1338.4
x2 = 0.3971	887.768	873.113	1411.3	1345
x2 = 0.4653	900.156	885.348	1417.5	1351.6
x2 = 0.5405	914.757	899.778	1425.3	1359.6
x2 = 0.6082	928.851	913.714	1432.9	1367.1
x2 = 0.6786	944.571	929.281	1441.8	1376.3
x2 = 0.7459	960.755	945.321	1451.1	1386.2
x2 = 0.8167	979.083	963.512	1461.2	1397.7
x2 = 0.8892	999.352	983.643	1474.3	1410.7
x2 = 0.9459	1016.5	1000.7	1485	1422.1

COc1ccccc1 [anisole] + CCCCCCCCCO
x1 = 1
Conditions	mass density [kg/m3]	speed of sound [m/s]
293.15 K	993.845	1427.3
313.15 K	974.966	1346.7

Cc1ccccc1O [2-methylphenol] + CCCCCCCCCO
x1 = 1
Conditions	mass density [kg/m3]	speed of sound [m/s]
293.15 K	1045.69	1521.8
313.15 K	1028.14	1453.3

Cc1cccc(O)c1 [3-methylphenol] + CCCCCCCCCO
x1 = 1
Conditions	mass density [kg/m3]	speed of sound [m/s]
293.15 K	1033.99	1496.8
313.15 K	1018.06	1434.2

CCCCCCCCCO [nonan-1-ol] + Cc1ccc(O)cc1
x2 = 0
Conditions	mass density [kg/m3]	speed of sound [m/s]
293.15 K	827.704	1380.7
313.15 K	813.877	1314
